Reference: publication PMC12113707, “Microwave Assisted Synthesis of Antioxidant Dihydro-Pyrazole Hybrids as Possible Lipoxygenase Inhibitors” (Molecules, 2025)

How the values were obtained:
[1] = Experimental lipophilicity RM by reverse phase thin layer chromatography (RP-TLC); format: physicochemical; settings: methanol-water mobile phase
Description: Lipophilicity is a main physicochemical parameter for bioactive molecules, linking solubility, ligand-target binding interactions, membrane permeability absorption, distribution, bioavailability, metabolism, elimination and toxicological effects (ADMET), playing an important role in biological activity. The experimental values of lipophilicity RM were determined by reverse phase thin layer chromatography. For the experimental determination of lipophilicity the hydrophilic-lipid phase system is a mixture of methanol- water (90/10%). The theoretical lipophilicity values are determined by the Bioloom program (http://biobyte.com/bb/prod/bioloom.html, accessed on 8 April 2024) (Table 1). According to the calculated clog P values, the most lipophilic compounds are 3c, 3d and 3f while the less lipophilic ones are compounds 5a and 5b.
Melting points were determined on a MEL-Temp II (Lab. Devices, Holliston, MA, USA). In vitro tests were carried out using a UV-Vis spectra and recorded on a Perkin-Elmer 554 double-beam spectrophotometer (Perkin-Elmer Corporation Ltd., Lane Beaconsfield, Bucks, UK). Infrared spectra (KBr pellets) were recorded with Perkin-Elmer 597 spectrophotometer (Perkin-Elmer Corporation Ltd., Lane Beaconsfield, Bucks, UK). The ^1H […] Magnetic Resonance (^1H-NMR) spectra were acquired on an Agilent 500/54 (DD2) at 500 MHz in CDCl3 using tetramethylsilane as an internal standard. Agilent 500/54 (DD2) ^13C NMR spectra were acquired at 125 MHz in CDCl3 solutions with tetramethylsilane serving as an internal reference. Coupling constants J are expressed in Hz, and chemical shifts are reported in ppm. Thermo Fisher Scientific Inc., Waltham, MA, USA, used MeOH as the solvent to calculate mass spectra using an LC-PDA-MS Thermo Finnigan system (LC Pump Plus, Autosampler, Surveyor PDA Plus Detector) interfaced with an ESI MSQ Plus (Thermo Finnigan). Thin-layer chromatography using 5554 F254 Silica gel/TLC cards (Merck and Fluka Chemie GmbH Buchs, Steinheim, Switzerland) was used to monitor the reaction progress. Silica gel 60 F254 plates with a diameter of 2 mm were utilized for preparative thin layer chromatography (prep TLC) by Merck KgaA (ICH078057). Merck (20 × 20 cm) plates were used for the experimental assessment of the lipophilicity using reverse phase thin-layer chromatography (RP-TLC) TLC-Silica gel 60 F254 DC Kieselgel.
In this experiment, TLC silica gel 60 F254 1.05715.0001 commercial glass plates from Merck were used. The plates were first immersed in a 5% v/v solution of liquid paraffin in petroleum ether and left for 90 s to become completely impregnated with the stable lipophilic phase. They were then activated by standing for 30 min in an oven at 40 °C and kept there until the time of use. A 70% v/v MeOH/H2O mixture was used as the mobile phase. The mobile phase was saturated with a few drops of liquid paraffin before being used. The spots of the compounds were placed on the plate at a distance of 2 cm from the edges of the plate and also from each other. The development of the spots on the plates was carried out in closed chromatography chambers where the atmosphere is saturated with the mobile phase at room temperature. At the end of development, the solvent-formed front was marked and the plates are dried at 80 °C for about 20–30 min. The appearance of the spots was made under an ultraviolet light lamp. The Rf values were the average of 5–6 measurements for each compound and assuming that the compounds will have been rotated to different positions on the plates. The RM values were calculated from the corresponding Rf values according to the equation [67].RM = log [(1/Rf) − 1](1)

[2] = Interaction with the stable free radical DPPH (reducing activity); settings: 517 nm
Description: In general, the compounds present moderate to good antioxidant activity. It seems that the dibenzylacetones present satisfactory antioxidant activity compared to the hybrids at 60 min (1b, 1d and 1f).
The tested compounds (0.1 mM final concentration) dissolved in DMSO were incubated with a solution of DPPH in absolute ethanol in absence of light. The absorbance at 20 and 60 min at 517 nm was recorded at room temperature. NDGA was used as the reference compound.

[3] = Inhibition of AAPH-induced linoleic acid peroxidation; settings: 37 °C, 234 nm
Description: The ability of the compounds to inhibit AAPH-induced peroxidation of linoleic acid is another assay to investigate the antioxidant properties of the compounds. Azo compounds such as 2,2′-azobis dihydrochloride (2-amidinopropane) (AAPH) are capable of generating free radicals through spontaneous decomposition at 37 °C. The R- radicals react immediately with air-oxygen to produce peroxy radicals. AAPH was therefore used as the radical initiator and sodium linoleate as substrate subjected to peroxidation. Measurements were carried out at 234 nm using a UV/V is spectrophotometer. Dichalcone 1i substituted with two phenyl groups presents the lowest lipophilicity. […] Therefore, hydrophilic substituents offer an increase in activity.
The interaction of free radicals with cell membrane lipids induces free radical chain reactions, a process called lipid peroxidation. 930 μL of a phosphate buffer solution (0.05 M, pH = 7.4), 10 μL of the sodium linolate solution (16 mM in a buffer solution of Tris-HCl pH = 9) and 10 μL of the tested compounds (stock solutions 100 μΜ) were mixed and the oxidative procedure started after the addition of 50 μL AAPH at 37 °C under air conditions. The conjugated diene’s absorbance was measured at 234 nm at a thermostable spectrophotometer (37 °C) according to previous publication.

[4] = molecular target: T1, soybean lipoxygenase (SLOX-1) (Glycine max, UniProt P08170); experiment: Inhibition of soybean lipoxygenase in vitro; format: biochemical; settings: pH 9, sodium linoleate substrate; for inhibition at 100 µM: read-out: LOX% Inhibition, 100 μM (±SD)
T1 construct: 200 μL of plant-derived lipoxygenase solution (1:9 × 10^−4 w/v, in saline); purchased Sigma Chemical, Co; host or cells: soybean (plant-derived)
T1 sequence (P08170 1-839): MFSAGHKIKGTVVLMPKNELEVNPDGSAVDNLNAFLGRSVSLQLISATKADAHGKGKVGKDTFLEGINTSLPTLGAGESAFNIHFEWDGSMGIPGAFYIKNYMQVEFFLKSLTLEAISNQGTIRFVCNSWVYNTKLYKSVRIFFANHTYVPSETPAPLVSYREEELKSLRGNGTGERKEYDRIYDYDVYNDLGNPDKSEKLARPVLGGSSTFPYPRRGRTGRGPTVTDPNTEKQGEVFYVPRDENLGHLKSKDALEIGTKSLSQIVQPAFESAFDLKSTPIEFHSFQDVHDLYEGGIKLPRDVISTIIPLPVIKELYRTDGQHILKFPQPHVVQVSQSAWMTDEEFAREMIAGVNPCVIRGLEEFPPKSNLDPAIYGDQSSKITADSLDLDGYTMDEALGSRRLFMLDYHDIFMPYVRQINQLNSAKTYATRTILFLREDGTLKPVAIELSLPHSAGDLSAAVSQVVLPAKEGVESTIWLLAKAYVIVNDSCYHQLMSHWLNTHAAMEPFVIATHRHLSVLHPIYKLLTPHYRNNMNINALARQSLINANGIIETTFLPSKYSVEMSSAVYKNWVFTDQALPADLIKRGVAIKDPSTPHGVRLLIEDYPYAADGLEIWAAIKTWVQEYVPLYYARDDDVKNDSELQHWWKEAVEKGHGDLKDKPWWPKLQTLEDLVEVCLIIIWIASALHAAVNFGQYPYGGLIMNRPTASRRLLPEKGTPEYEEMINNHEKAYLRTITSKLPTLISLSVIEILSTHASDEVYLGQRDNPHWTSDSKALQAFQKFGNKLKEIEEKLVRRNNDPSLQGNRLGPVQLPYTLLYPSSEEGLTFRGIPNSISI
Description: Soybean lipoxygenase SLOX-1 at pH 9 is used in vitro. During this assay linoleic acid sodium salt is converted to the corresponding 13-hydroperoxide. The reaction is recorded photometrically at 234 nm using the UV-based enzyme assay. […] It is known that soybean LOX inhibitory activity induced by NSAIDs is qualitatively quite similar to the inhibition observed on the rat mast cells LOX and this assay may be used as a qualitative or semi-quantitative screen for such activity.
To a quartz cell, add 790 μL of Tris-HCl pH = 9.0 buffer, 200 μL of plant-derived lipoxygenase solution (1:9 × 10^−4 w/v, in saline), 10 μL of the test compound solution and 100 μL of sodium linoleate solution (3 mM concentration). The absorbance was measured at 234 nm, where the change in absorbance due to the conversion of linoleic acid to […] was recorded. A solution of 790 μL of Tris-HCl pH = 9.0 buffer, 200 μL of a plant-derived lipoxygenase solution (1:9 × 10^−4 w/v, in saline), 10 μL of DMSO and 100 μL of sodium linoleate solution (3 mM concentration) was used as a control.

With `O=C(/C=C/c1ccccc1)/C=C/c1ccccc1` [Compound 1a, (1E,4E)-1,5-diphenyl-1,4-pentadien-3-one] the “RM ± SD” value [1] was 0.10 ± 0.003, the “RA%, 100 μM, 20 min (±SD)” value [2] was 5 ± 0.5% and the “RA%, 100 μM, 60 min (±SD)” value [2] was 10 ± 0.5%. For the same compound, the “AAPH% Inhibition, 100 μM (±SD)” value [3] was 69 ± 0.3% and the IC50 ([4]; read-out: LOX IC50 (μM) (±SD)) was 10 µM.

In the case of `O=C(/C=C/c1ccc(F)cc1)/C=C/c1ccc(F)cc1` [Compound 1b, (1E,4E)-1,5-bis(4-fluorophenyl)-1,4-pentadien-3-one], the “RM ± SD” value [1] is reported as 0.19 ± 0.001, the “RA%, 100 μM, 20 min (±SD)” value [2] is reported as 13 ± 0.6% and the “RA%, 100 μM, 60 min (±SD)” value [2] is reported as 100 ± 1.1%. The “AAPH% Inhibition, 100 μM (±SD)” value [3] was 37 ± 0.1% and the inhibition at 100 µM [4] was 30 ± 0.1%.

For `O=C(/C=C/c1ccc(Br)cc1)/C=C/c1ccc(Br)cc1` [Compound 1c, (1E,4E)-1,5-bis(4-bromophenyl)-1,4-pentadien-3-oneone], the “RM ± SD” value [1] was 0.65 ± 0.034, the “RA%, 100 μM, 60 min (±SD)” value [2] was 44 ± 1.6% and the “AAPH% Inhibition, 100 μM (±SD)” value [3] was 61 ± 0.5%. The inhibition at 100 µM [4] was 28 ± 0.6%.

With `O=C(/C=C/c1ccc(Cl)cc1)/C=C/c1ccc(Cl)cc1` [Compound 1d, (1E,4E)-1,5-bis(4-chlorophenyl)-1,4-pentadien-3-one] the “RM ± SD” value [1] was 0.50 ± 0.042, the “RA%, 100 μM, 20 min (±SD)” value [2] was 86 ± 4.5% and the “RA%, 100 μM, 60 min (±SD)” value [2] was 95 ± 4.8%. For the same compound, the “AAPH% Inhibition, 100 μM (±SD)” value [3] was 53 ± 0.6% and the inhibition at 100 µM [4] was 38 ± 0.7%.

In the case of `Brc1ccc(/C=C/C2=NN(c3ccccc3)C(c3ccc(Br)cc3)C2)cc1` (stereo not shown) [Compound 2c], the “RM ± SD” value [1] is reported as 2.1 ± 0.17, the “RA%, 100 μM, 20 min (±SD)” value [2] is reported as 21 ± 0.6% and the “AAPH% Inhibition, 100 μM (±SD)” value [3] is reported as 68 ± 0.6%.

In the case of `N#Cc1ccc(N2N=C(/C=C/c3ccccc3)CC2c2ccccc2)cc1` (stereo not shown) [Compound 4a, (E)-4-(5-phenyl-3-styryl-4,5-dihydro-1H-pyrazo-1-yl)-benzonitrile], the “RM ± SD” value [1] is reported as −0.31 ± 0.023, the “AAPH% Inhibition, 100 μM (±SD)” value [3] is reported as 98 ± 0.4% and the inhibition at 100 µM [4] is reported as 39 ± 0.4%.

For `N#Cc1ccc(N2N=C(/C=C/c3ccc(F)cc3)CC2c2ccc(F)cc2)cc1` (stereo not shown) [Compound 4b, (E)-4-(5-(4-fluorophenyl)-3-(4-fluorostyryl)-4,5-dihydro-1H-pyrazo-1-yl)-benzonitrile], the “RM ± SD” value [1] was 0.61 ± 0.053, the “RA%, 100 μM, 20 min (±SD)” value [2] was 2 ± 0.1% and the “AAPH% Inhibition, 100 μM (±SD)” value [3] was 97 ± 0.6%.

In the case of `N#Cc1ccc(N2N=C(/C=C/c3ccc(C(F)(F)F)cc3)CC2c2ccc(C(F)(F)F)cc2)cc1` (stereo not shown) [Compound 4f, (E)-4-(5-(4-(trifluoromethyl)phenyl)-3-(4-(trifluoromethyl)styryl)-4,5-dihydro-1H-pyrazol-1-yl)-benzonitrile], the “RM ± SD” value [1] is reported as 0.8 ± 0.031, the “AAPH% Inhibition, 100 μM (±SD)” value [3] is reported as 12 ± 1.1% and the inhibition at 100 µM [4] is reported as 22 ± 1.8%.

For `NC(=O)N1N=C(/C=C/c2ccccc2)CC1c1ccccc1` (stereo not shown) [Compound 5a, (E)-5-phenyl-3-styryl-4,5-dihydro-1H-pyrazole-1-carboxamide], the “RM ± SD” value [1] was 0.06 ± 0.005, the “AAPH% Inhibition, 100 μM (±SD)” value [3] was 29 ± 2.2% and the inhibition at 100 µM [4] was 4 ± 0.3%.

For `NC(=O)N1N=C(/C=C/c2ccc(Br)cc2)CC1c1ccc(Br)cc1` (stereo not shown) [Compound 5c, (E)-5-(4-bromophenyl)-3-(4-bromostyryl)-4,5-dihydro-1H-pyrazole-1-carboxamide], the “RM ± SD” value [1] was 0.60 ± 0.055, the “AAPH% Inhibition, 100 μM (±SD)” value [3] was 85 ± 0.6% and the inhibition at 100 µM [4] was 37 ± 0.6%.

For `CC(=O)N1N=C(/C=C/c2ccc(F)cc2)CC1c1ccc(F)cc1` (stereo not shown) [Compound 6b, (E)-5-(4-fluorophenyl)-3-(4-fluorostyryl)-4,5-dihydro-1-H-pyrazol-1-ethan-1-one], the “RM ± SD” value [1] was 0.24 ± 0.021, the “AAPH% Inhibition, 100 μM (±SD)” value [3] was 46 ± 0.6% and the inhibition at 100 µM [4] was 26 ± 0.3%.

For `CC(=O)N1N=C(/C=C/c2ccc(Br)cc2)CC1c1ccc(Br)cc1` (stereo not shown) [Compound 6c, (E)-5-(4-bromophenyl)-3-(4-bromostyrene)-4,5-dihydro-1-H-pyrazol-1-ethan-1-one], the “RM ± SD” value [1] was 0.78 ± 0.051, the “AAPH% Inhibition, 100 μM (±SD)” value [3] was 71 ± 0.4% and the inhibition at 100 µM [4] was 1 ± 0.07%.

In the case of `CC(Cc1ccc(O)c(O)c1)C(C)Cc1ccc(O)c(O)c1` (stereo not shown) [NDGA, Nordihydroguaretic acid, reference compound], the “RA%, 100 μM, 20 min (±SD)” value [2] is reported as 87% and the “RA%, 100 μM, 60 min (±SD)” value [2] is reported as 93%.

In the case of `Cc1c(C)c2c(c(C)c1O)CCC(C)(C(=O)O)O2` (stereo not shown) [Trolox, 6-Hydroxy-2,5,7,8-tetramethyl-chroman2-carboxylic acid, reference compound], the “AAPH% Inhibition, 100 μM (±SD)” value [3] is reported as 92%.
